Among the data in PubChem BioAssay (NCI) are TGI and GI50 values, retold here.

Among the test systems are HCT-15 colon; CCRF-CEM leukemia; UACC-62 melanoma; NCI-H23 lung; COLO 205 colon; OVCAR-4 ovarian; SNB-19 CNS; 786-0 renal; SF-295 CNS; SR leukemia.
Holding throughout (assay): NCI-60 cell line screen, 48 h

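In this assay, cells in 96-well plates receive the compound at five concentrations for 48 hours. Endpoints are linearly interpolated between the surrounding concentrations. GI50 marks 50% less growth. TGI: concentration producing complete growth inhibition.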

`NCCOc1ccccn1`: the TGI in the experiment on HCT-15 colon, in the experiment with CCRF-CEM leukemia, in the experiment on UACC-62 melanoma, in the experiment with NCI-H23 lung, in the experiment with COLO 205 colon and in the experiment with OVCAR-4 ovarian was above 100 µM throughout. Besides, the TGI with SNB-19 CNS, in the experiment on 786-0 renal, in the experiment with SF-295 CNS and in the experiment on SR leukemia was above 100 µM throughout.
`Cn1cccc1-c1cc(-c2ccc(Br)cc2)nc(N)c1C#N`: the GI50 in the experiment with HCT-15 colon is above 100 µM; with CCRF-CEM leukemia it was above 100 µM; in the experiment with UACC-62 melanoma, 33.3 µM; in the experiment with NCI-H23 lung it was above 100 µM; with COLO 205 colon, above 100 µM; in the experiment on OVCAR-4 ovarian, 77.2 µM. Moreover, the GI50 in the experiment with SNB-19 CNS was above 100 µM; in the experiment on 786-0 renal it was above 100 µM; in the experiment with SF-295 CNS, above 100 µM; in the experiment on SR leukemia, 3.42 µM. Also, the TGI with HCT-15 colon, in the experiment with CCRF-CEM leukemia, in the experiment on UACC-62 melanoma, in the experiment with NCI-H23 lung, in the experiment on COLO 205 colon and in the experiment on OVCAR-4 ovarian was above 100 µM in each case. For the same compound, the TGI is above 100 µM in the experiment on SNB-19 CNS, above 100 µM in the experiment with 786-0 renal, above 100 µM with SF-295 CNS and 20.4 µM with SR leukemia.
Take `COc1ccc(C2CC(c3cc(OC)c(OC)c(OC)c3)=NN2)cc1` (stereo not drawn): the GI50 in the experiment with HCT-15 colon is 3.48 µM; with CCRF-CEM leukemia, 6.34 µM; in the experiment with UACC-62 melanoma, 7.63 µM; in the experiment with NCI-H23 lung, 12.9 µM; in the experiment with COLO 205 colon, 4 µM; in the experiment with OVCAR-4 ovarian, 12.8 µM. The GI50 in the experiment with SNB-19 CNS was 15.6 µM; with 786-0 renal it was 20.7 µM; with SF-295 CNS, 4.99 µM; in the experiment with SR leukemia, 1.01 µM. For the same compound, the TGI with HCT-15 colon is above 100 µM; in the experiment on CCRF-CEM leukemia, above 100 µM; with UACC-62 melanoma, above 100 µM; in the experiment with NCI-H23 lung it was above 100 µM; with COLO 205 colon, 31 µM; in the experiment with OVCAR-4 ovarian, above 100 µM. Besides, the TGI was above 100 µM in the experiment with SNB-19 CNS, above 100 µM in the experiment with 786-0 renal, above 100 µM in the experiment on SF-295 CNS and 4.43 µM in the experiment with SR leukemia.
`N#CC(C#N)=C1NC(=O)C(c2ccccc2)C(=O)N1` (stereo not drawn): the TGI in the experiment on HCT-15 colon, in the experiment on CCRF-CEM leukemia, in the experiment on UACC-62 melanoma, in the experiment on NCI-H23 lung, with COLO 205 colon and in the experiment on OVCAR-4 ovarian was above 100 µM throughout. Moreover, the TGI in the experiment on SNB-19 CNS, with 786-0 renal, in the experiment with SF-295 CNS and in the experiment with SR leukemia was above 100 µM in each case.
Turning to `CC(C)(C)c1ccc(-c2nnc(SCc3ccc(Cl)cc3)n2-c2cccc(C(F)(F)F)c2)cc1`, the TGI in the experiment on HCT-15 colon was above 100 µM; in the experiment on CCRF-CEM leukemia, above 100 µM; in the experiment with UACC-62 melanoma, above 100 µM; with NCI-H23 lung, above 100 µM; in the experiment on COLO 205 colon, 23.4 µM; with OVCAR-4 ovarian, above 100 µM. Further, the TGI in the experiment with SNB-19 CNS is above 100 µM; in the experiment with 786-0 renal, above 100 µM; with SF-295 CNS, above 100 µM; in the experiment with SR leukemia it was 31.5 µM.
Consider `Cn1c(=O)c(Cc2ccc(F)cc2F)cc2cnc(NC3CCOCC3)nc21`, for which the GI50 in the experiment on HCT-15 colon is above 25 µM; with CCRF-CEM leukemia, above 25 µM; in the experiment with UACC-62 melanoma, above 23.8 µM; in the experiment with NCI-H23 lung, above 25 µM; with COLO 205 colon, above 25 µM; with OVCAR-4 ovarian, above 21.7 µM. Also, the GI50 with SNB-19 CNS was 24.3 µM; in the experiment with 786-0 renal, above 25 µM; with SF-295 CNS, above 25 µM; with SR leukemia it was above 25 µM. Besides, the TGI in the experiment on HCT-15 colon, in the experiment on CCRF-CEM leukemia, in the experiment on UACC-62 melanoma, with NCI-H23 lung, with COLO 205 colon and in the experiment on OVCAR-4 ovarian was above 25 µM throughout. Further, the TGI in the experiment on SNB-19 CNS, in the experiment with 786-0 renal, in the experiment on SF-295 CNS and with SR leukemia was above 25 µM each time.
Turning to `COC(=O)c1ccc2c(c1)nc(-c1ccc(Cl)cc1)n2-c1cc(C(C)(C)C)[nH]n1`, the GI50 in the experiment with HCT-15 colon was 4.36 µM; with CCRF-CEM leukemia, 4.91 µM; with UACC-62 melanoma it was 2.01 µM; with NCI-H23 lung, 3.42 µM; in the experiment with COLO 205 colon it was 2.29 µM; with OVCAR-4 ovarian, 3.4 µM. Besides, the GI50 in the experiment on SNB-19 CNS is 4.31 µM; with 786-0 renal, 3.62 µM; with SF-295 CNS, 2.48 µM; in the experiment on SR leukemia it was 3.23 µM. Moreover, the TGI in the experiment on HCT-15 colon is above 100 µM; with CCRF-CEM leukemia, above 100 µM; in the experiment with UACC-62 melanoma it was 7.78 µM; with NCI-H23 lung, 36 µM; with COLO 205 colon, 6.04 µM; in the experiment with OVCAR-4 ovarian, above 100 µM. Moreover, the TGI in the experiment with SNB-19 CNS was above 100 µM; in the experiment with 786-0 renal, 32 µM; with SF-295 CNS, 8.98 µM; in the experiment with SR leukemia it was above 100 µM.
Regarding `CCN1C(=O)N(c2c(F)c(OC)cc(OC)c2F)Cc2cnc3[nH]c(CN4CCOCC4)cc3c21`, the GI50 is 0.947 µM with HCT-15 colon; 2.13 µM with CCRF-CEM leukemia; 3.77 µM in the experiment on UACC-62 melanoma; 7.03 µM in the experiment on NCI-H23 lung; 3.15 µM in the experiment with COLO 205 colon; 1.69 µM in the experiment on OVCAR-4 ovarian. For the same compound, the GI50 in the experiment with 786-0 renal was 2.84 µM; in the experiment with SF-295 CNS, 3.83 µM; with SR leukemia, 1.62 µM. For the same compound, the TGI in the experiment with HCT-15 colon is above 100 µM; with CCRF-CEM leukemia, above 100 µM; in the experiment with UACC-62 melanoma it was 51.5 µM; in the experiment on NCI-H23 lung it was above 100 µM; in the experiment on COLO 205 colon it was above 100 µM; in the experiment with OVCAR-4 ovarian, above 100 µM. The figures for the TGI with 786-0 renal, in the experiment with SF-295 CNS and with SR leukemia were 30.1 µM, above 100 µM and 9.95 µM, respectively.
